In brackets after ≈: the same amount, converted by molar mass.
What was measured:
[1] = test system: Kasumi-1 (acute myeloid leukemia M2 type) cells; assay: MTT cell growth inhibition, leukemia cells; type: cell-based, human; details: Homo sapiens, Kasumi-1, 72 h, MTT
Text: (§1) Leukemia cell lines: leukemia cell lines: K562adr (drug-resistant, chronic myeloid leukemia, CML), NB4 (acute promyelocytic leukemia, AML), Kasumi-1 (acute myeloid leukemia M2 type, AML-M2), Jurkat (acute lymphoblastic leukemia, ALL), all of which were donated by Cancer Research Institute of Zhejiang University, China; and H9 (acute lymphoblastic leukemia, ALL), which was purchased from China Center for Type Culture Collection.
(§2) Reagents: The standard sample of fangchinoline (FAN) was purchased from Ci Yuan Biotechnology Co., Ltd., Shaanxi, China; and the 7-substituted fangchinoline derivatives according to the present invention.
(§3) 6000 well-growing leukemia cells were obtained and inoculated into wells of a 96-well cell culture plate. The culture medium was a RPMI-1640 cell culture medium containing 10% fetal bovine serum. After adding the 7-substituted fangchinoline derivatives of different concentrations the next day and mixing uniformly, the plate was placed in a carbon dioxide cell incubator (5% CO2) at 37° C. and incubating for 72 hours. Then the viable cell concentration was determined by the MTT method.

[2] = test system: H9 (acute lymphoblastic leukemia) cells; assay: MTT cell growth inhibition, leukemia cells; type: cell-based, human; details: Homo sapiens, H9, 72 h, MTT
Text: as §1, §2, §3

[3] = test system: Jurkat (acute lymphoblastic leukemia) cells; assay: MTT cell growth inhibition, leukemia cells; type: cell-based, human; details: Homo sapiens, Jurkat, 72 h, MTT
Text: as §1, §2, §3

[4] = test system: PC-3 (prostate cancer) cells; assay: MTT cell growth inhibition, solid tumor cells; type: cell-based, human; details: Homo sapiens, PC-3, 72 h, MTT
Text: (§4) Hep-2 (laryngeal carcinoma), A549 (human lung cancer), CaES-17 (esophageal cancer cell), PC-3 (prostate cancer), CNE (nasopharyngeal carcinoma cell) and SK-OV-3 (ovarian cancer cell), all of which were purchased from China Center For Type Culture Collection; RKO (human colon adenocarcinoma cell), MGC-803 (human gastric cancer cell), MG-63 (osteosarcoma), and U87-MG (malignant glioma cell), all of which were purchased from Fuxiang Bio-tech Co. Ltd., Shanghai, China; PANC-1 (pancreatic cancer), Becap37 (human breast cancer cell), Hela (human cervical cancer cell) and Hep G2 (human liver cancer cell), all of which were donated by Cancer Research Institute of Zhejiang University, China.
as §3, with “human solid tumor” for “leukemia”, “DMEM High Glucose” for “a RPMI-1640”, “serum. The plate was placed in a carbon dioxide cell incubator (5% CO2) at 37° C. and incubated for 24 hours.” for “serum.”, “added with” for “adding the”, “concentration” for “concentrations the next day”, “incubated” for “incubating”

[5] = test system: PANC-1 (pancreatic cancer) cells; assay: MTT cell growth inhibition, solid tumor cells; type: cell-based, human; details: Homo sapiens, PANC-1, 72 h, MTT
Text: as §4
as §3, with “human solid tumor” for “leukemia”, “DMEM High Glucose” for “a RPMI-1640”, “serum. The plate was placed in a carbon dioxide cell incubator (5% CO2) at 37° C. and incubated for 24 hours.” for “serum.”, “added with” for “adding the”, “concentration” for “concentrations the next day”, “incubated” for “incubating”

[6] = test system: CNE (nasopharyngeal carcinoma) cells; assay: MTT cell growth inhibition, solid tumor cells; type: cell-based, human; details: Homo sapiens, CNE, 72 h, MTT
Text: as §4
as §3, with “human solid tumor” for “leukemia”, “DMEM High Glucose” for “a RPMI-1640”, “serum. The plate was placed in a carbon dioxide cell incubator (5% CO2) at 37° C. and incubated for 24 hours.” for “serum.”, “added with” for “adding the”, “concentration” for “concentrations the next day”, “incubated” for “incubating”

[7] = test system: CaEs-17 (esophageal cancer) cells; assay: MTT cell growth inhibition, solid tumor cells; type: cell-based, human; details: Homo sapiens, CaEs17, CaEs-17, 72 h, MTT
Text: as §4
as §3, with “human solid tumor” for “leukemia”, “DMEM High Glucose” for “a RPMI-1640”, “serum. The plate was placed in a carbon dioxide cell incubator (5% CO2) at 37° C. and incubated for 24 hours.” for “serum.”, “added with” for “adding the”, “concentration” for “concentrations the next day”, “incubated” for “incubating”

[8] = test system: SK-OV-3 (ovarian cancer) cells; assay: MTT cell growth inhibition, solid tumor cells; type: cell-based, human; details: Homo sapiens, SK-OV-3, 72 h, MTT
Text: as §4
as §3, with “human solid tumor” for “leukemia”, “DMEM High Glucose” for “a RPMI-1640”, “serum. The plate was placed in a carbon dioxide cell incubator (5% CO2) at 37° C. and incubated for 24 hours.” for “serum.”, “added with” for “adding the”, “concentration” for “concentrations the next day”, “incubated” for “incubating”

[9] = test system: tumor; assay: Antitumor activity compared with fangchinoline, overall statement; type: cell-based; details: tumor type not specified
[10] = test system: RPMI 8226 (multiple myeloma) cells; assay: MTT cell growth inhibition, multiple myeloma cells; type: cell-based, human; details: Homo sapiens, RPMI 8226, 72 h, MTT
Protocol: Myeloma cell lines: RPMI8226 (multiple myeloma), purchased from Fuxiang Bio-tech Co. Ltd., Shanghai, China.
as §3, with “well-growing” for “well-growing leukemia”, “incubated” for “incubating”

[11] = test system: Becap-37 (human breast cancer) cells; assay: MTT cell growth inhibition, solid tumor cells; type: cell-based; details: Homo sapiens, Becap-37, 72 h, MTT
Text: as §4
as §3, with “human solid tumor” for “leukemia”, “DMEM High Glucose” for “a RPMI-1640”, “serum. The plate was placed in a carbon dioxide cell incubator (5% CO2) at 37° C. and incubated for 24 hours.” for “serum.”, “added with” for “adding the”, “concentration” for “concentrations the next day”, “incubated” for “incubating”

[12] = test system: MG-63 (osteosarcoma) cells; assay: MTT cell growth inhibition, solid tumor cells; type: cell-based; details: Homo sapiens, MG-63, 72 h, MTT
Text: as §4
as §3, with “human solid tumor” for “leukemia”, “DMEM High Glucose” for “a RPMI-1640”, “serum. The plate was placed in a carbon dioxide cell incubator (5% CO2) at 37° C. and incubated for 24 hours.” for “serum.”, “added with” for “adding the”, “concentration” for “concentrations the next day”, “incubated” for “incubating”

[13] = test system: MGC-803 (human gastric cancer) cells; assay: MTT cell growth inhibition, solid tumor cells; type: cell-based; details: MGC-803, 72 h, MTT
Text: as §4
as §3, with “human solid tumor” for “leukemia”, “DMEM High Glucose” for “a RPMI-1640”, “serum. The plate was placed in a carbon dioxide cell incubator (5% CO2) at 37° C. and incubated for 24 hours.” for “serum.”, “added with” for “adding the”, “concentration” for “concentrations the next day”, “incubated” for “incubating”

[14] = test system: Hep G2 (human liver cancer) cells; assay: MTT cell growth inhibition, solid tumor cells; type: cell-based; details: Homo sapiens, HepG2, Hep G2, 72 h, MTT
Text: as §4
as §3, with “human solid tumor” for “leukemia”, “DMEM High Glucose” for “a RPMI-1640”, “serum. The plate was placed in a carbon dioxide cell incubator (5% CO2) at 37° C. and incubated for 24 hours.” for “serum.”, “added with” for “adding the”, “concentration” for “concentrations the next day”, “incubated” for “incubating”

[15] = test system: RKO (human colon adenocarcinoma) cells; assay: MTT cell growth inhibition, solid tumor cells; type: cell-based; details: Homo sapiens, RKO, 72 h, MTT
Text: as §4
as §3, with “human solid tumor” for “leukemia”, “DMEM High Glucose” for “a RPMI-1640”, “serum. The plate was placed in a carbon dioxide cell incubator (5% CO2) at 37° C. and incubated for 24 hours.” for “serum.”, “added with” for “adding the”, “concentration” for “concentrations the next day”, “incubated” for “incubating”

[16] = test system: Hela (human cervical cancer) cells; assay: MTT cell growth inhibition, solid tumor cells; type: cell-based; details: Homo sapiens, Hela, 72 h, MTT
Text: as §4
as §3, with “human solid tumor” for “leukemia”, “DMEM High Glucose” for “a RPMI-1640”, “serum. The plate was placed in a carbon dioxide cell incubator (5% CO2) at 37° C. and incubated for 24 hours.” for “serum.”, “added with” for “adding the”, “concentration” for “concentrations the next day”, “incubated” for “incubating”

[17] = test system: NB4 (acute promyelocytic leukemia) cells; assay: MTT cell growth inhibition, leukemia cells; type: cell-based; details: Homo sapiens, NB4, 72 h, MTT
Text: as §1, §2, §3

[18] = test system: K562/ADR (K562adr, drug-resistant chronic myeloid leukemia) cells; assay: MTT cell growth inhibition, leukemia cells; type: cell-based; details: Homo sapiens, K562/ADR, 72 h, MTT
Text: as §1, §2, §3

IC50 ([1]; read-out: IC50): 1.54 µg/mL (≈ 2.28 µM)
IC90 ([1]; read-out: IC90): 3.94 µg/mL (≈ 5.82 µM)
IC50 ([2]; read-out: IC50): 3.6 µg/mL (≈ 5.32 µM)
IC90 ([2]; read-out: IC90): 7.05 µg/mL (≈ 10.4 µM)
IC50 ([3]; read-out: IC50): 0.81 µg/mL (≈ 1.2 µM)
IC90 ([3]; read-out: IC90): 2.94 µg/mL (≈ 4.34 µM)
IC50 ([4]; read-out: IC50): 4.02 µg/mL (≈ 5.94 µM)
IC90 ([4]; read-out: IC90): 10.5 µg/mL (≈ 15.5 µM)
IC50 ([5]; read-out: IC50): 3.73 µg/mL (≈ 5.51 µM)
IC90 ([5]; read-out: IC90): 10.4 µg/mL (≈ 15.4 µM)
IC50 ([6]; read-out: IC50): 3.8 µg/mL (≈ 5.61 µM)
IC90 ([6]; read-out: IC90): 7.2 µg/mL (≈ 10.6 µM)
IC50 ([7]; read-out: IC50): 2.35 µg/mL (≈ 3.47 µM)
IC90 ([7]; read-out: IC90): 10.7 µg/mL (≈ 15.8 µM)
IC50 ([8]; read-out: IC50): 6.45 µg/mL (≈ 9.53 µM)
IC90 ([8]; read-out: IC90): 15.4 µg/mL (≈ 22.7 µM)
IC50 ([10]; read-out: IC50): 0.16 µg/mL (≈ 0.236 µM)
IC90 ([10]; read-out: IC90): 0.98 µg/mL (≈ 1.45 µM)
IC50 ([11]; read-out: IC50): 3.15 µg/mL (≈ 4.65 µM)
IC90 ([11]; read-out: IC90): 7.22 µg/mL (≈ 10.7 µM)
IC50 ([12]; read-out: IC50): 2.32 µg/mL (≈ 3.43 µM)
IC90 ([12]; read-out: IC90): 5.72 µg/mL (≈ 8.45 µM)
IC50 ([13]; read-out: IC50): 1.87 µg/mL (≈ 2.76 µM)
IC90 ([13]; read-out: IC90): 10.2 µg/mL (≈ 15.1 µM)
IC50 ([14]; read-out: IC50): 2.49 µg/mL (≈ 3.68 µM)
IC90 ([14]; read-out: IC90): 9.42 µg/mL (≈ 13.9 µM)
IC50 ([15]; read-out: IC50): 1.79 µg/mL (≈ 2.64 µM)
IC90 ([15]; read-out: IC90): 3.45 µg/mL (≈ 5.1 µM)
IC50 ([16]; read-out: IC50): 1.87 µg/mL (≈ 2.76 µM)
IC90 ([16]; read-out: IC90): 4.65 µg/mL (≈ 6.87 µM)
IC50 ([17]; read-out: IC50): 1.24 µg/mL (≈ 1.83 µM)
IC90 ([17]; read-out: IC90): 3.99 µg/mL (≈ 5.9 µM)
IC50 ([18]; read-out: IC50): 0.44 µg/mL (≈ 0.65 µM)
IC90 ([18]; read-out: IC90): 3 µg/mL (≈ 4.43 µM)
SMILES: COc1ccc2cc1Oc1ccc(cc1)C[C@H]1c3cc(c(OC)cc3CCN1C)Oc1c(OC(=O)C3CC3)c(OC)cc3c1[C@H](C2)N(C)CC3 [BS-FC-304]
antitumor activity compared with that of fangchinoline [9]: significantly superior
